This is an account of results in US7618787B2, “Method of screening compound capable of accelerating or inhibiting apoptosis, apoptosis accelarator and apoptosis inhibitor” (Hisamitsu Pharmaceutical Co., Inc., priority 2004, dated 2009).

Test [1] deals with T1, p73 (Homo sapiens, UniProt O15350).
T1 construct: expressed in transfected cells; host or cells: COS7
T1 sequence (O15350 1-636): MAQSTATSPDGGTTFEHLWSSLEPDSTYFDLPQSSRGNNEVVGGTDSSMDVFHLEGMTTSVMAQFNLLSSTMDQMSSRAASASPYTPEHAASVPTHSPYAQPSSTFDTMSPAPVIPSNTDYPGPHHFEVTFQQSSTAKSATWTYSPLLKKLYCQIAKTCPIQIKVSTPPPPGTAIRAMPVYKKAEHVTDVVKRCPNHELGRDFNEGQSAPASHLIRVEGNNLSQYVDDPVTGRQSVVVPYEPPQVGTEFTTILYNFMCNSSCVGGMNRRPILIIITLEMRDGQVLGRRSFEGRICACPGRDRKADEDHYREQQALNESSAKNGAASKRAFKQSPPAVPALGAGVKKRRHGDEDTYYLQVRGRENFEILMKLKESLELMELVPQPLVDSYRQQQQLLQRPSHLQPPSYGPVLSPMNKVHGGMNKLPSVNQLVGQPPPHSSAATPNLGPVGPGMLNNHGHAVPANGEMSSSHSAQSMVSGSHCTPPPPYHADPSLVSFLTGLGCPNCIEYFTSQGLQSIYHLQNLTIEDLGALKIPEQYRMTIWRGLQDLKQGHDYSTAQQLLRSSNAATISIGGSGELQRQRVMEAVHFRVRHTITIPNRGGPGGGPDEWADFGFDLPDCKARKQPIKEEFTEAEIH
As to the kind of experiment: p73 protein level (stabilization) by immunoblot in cotransfected COS7 cells. The class given is cell-based. The settings on record: COS7 cotransfection (FIG. 14, 15, 29). As to the method:
(§1) Cells were transiently transfected with a total of 2 μg of expression plasmids. After 48 hours of the transfection, the cells were washed with ice-cold PBS and suspended in lysis buffer (pH 8.0; which contained 25 mM Tris-Cl, 137 mM sodium chloride, 1% Triton X-100, 1 mM phenylmethylsulfonyl fluoride (PMSF), and protease inhibitor mix (Roche Molecular Biochemicals)), followed by brief sonication. After centrifugation at 15000 rpm for 10 minutes, the supernatant was collected and assayed for protein concentrations by the Bradford assay (Bio-Rad). Equal amounts of lysates (protein amount: 50 μg) from the whole cells were denatured by boiling in Laemmli SDS-sample buffer, then separated on 10% SDS-polyacrylamide gel (SDS-PAGE), and transferred at room temperature for 1 hour to polyvinylidene difluoride (PVDF) membranes (Immobilon-P; Millipore) in Tris-glycine buffer containing 10% methanol. The membranes were blocked at room temperature for 1 hour with Tris-buffered saline (TBS-T) containing 5% skim milk and 0.1% Tween 20.
As previously reported, some protein kinases (e.g., c-Abl and PKCδ) that interact with p73 can stabilize p73. To confirm whether IKK-α influenced the stabilization of p73, COS7 cells were transfected with a constant amount of HA-p73α expression plasmid together with or without varying amounts of IKK-α expression plasmids and examined for HA-p73α protein levels. […] Next, whether IKK-β influenced the stabilization of p73 and p53 was investigated by transient transfection.
On the technique in general: Immunoblotting shows a protein as a band on a membrane.

The next test concerns H1299 cells. As to the kind of experiment: Apoptosis assay (trypan blue / Red-Gal double staining), p73α-dependent. In kind it is cell-based, human. Conditions: H1299, coexpression with HA-p73α, 48 hours (FIG. 25-27). As to the method: To detect apoptosis via p73α and IKK overexpression, H1299 cells were seeded at a density of 1.5×10^4 cells/well onto a 6-well tissue culture dish. Next day, the cells were transiently transfected with 50 ng of β-galactosidase expression plasmid and 50 ng of HA-p73α expression plasmid in the presence or absence of varying amounts of IKK-α or IKK-β expression vectors (100, 200, or 400 ng). After 48 hours of the transfection, the cells were washed with ice-cold PBS and stained at room temperature for 10 minutes with 0.4% trypan blue (PBS solution). Then, the cells were washed twice with PBS, then fixed for 10 minutes in PBS containing 2.5% glutaraldehyde, 1 mM magnesium chloride, and 2 mM EGTA, and stained for 2 hours with Red-Gal (Research Organics) according to the method described in Bayon, Y. et al., Mol. Cell. Biol. 23: 1061-1074 (2003). Red-Gal was used as a marker for visualizing the transfected cells to evaluate the degree of apoptosis occurring in the transfectants. […] Results were indicated by an average of three independent transfections (each performed three times or more).
Potential effect(s) of IKK-α on p73-dependent biological functions such as the regulation of apoptosis was examined. […] After 48 hours of the transfection, the cells were subjected to double staining with trypan blue (nonviable cells) and Red-Gal (transfected cells), and the number of purple cells was scored.

Test [2] concerns p73. Briefly: Luciferase reporter assay, p73-dependent transcriptional activation in H1299 cells. In kind it is cell-based, human. The settings on record: H1299, coexpression with HA-p73α or HA-p73β (FIG. 20, 21, 23). As to the method:
H1299 cells deficient in p53 were seeded at a density of 5×10^4 cells/well onto a 12-well tissue culture dish and transiently transfected with 100 ng of luciferase reporter construct (which carried a p53/p73-responsive element derived from a p21^WAF1, Bax, or MDM2 promoter), 10 ng of pRL-TK Renilla luciferase cDNA, and 25 ng of given expression plasmid (p53, HA-p73α, or HA-p73β) together with or without varying amounts of IKK-α or FLAG-IKK-β expression plasmids. The total amount of DNA per transfection was kept constant (510 ng) with a pcDNA3 empty plasmid. After 48 hours from the transfection, the cells were washed twice with ice-cold PBS and suspended in passive lysis buffer (Promega). Both firefly and Renilla luciferase activities were assayed by use of dual-luciferase reporter assay system (Promega) according to the instruction. […] intensity was measured with TD-20 luminometer (Turner Design). The firefly luciferase signal was normalized based on the Renilla luciferase signal. Results obtained from at least 3 transfections were indicated by mean value±standard deviation.
To explore the functional implication of interaction between IKK-α and p73, the effect of IKK-α on p73-mediated transcriptional activation was first examined. H1299 cells deficient in p53 were transfected with a HA-p73α or HA-p73β expression plasmid and a luciferase reporter construct under the control of a p21^WAF1, Bax, or MDM2 promoter together with or without varying amounts of IKK-α expression plasmids. […] By contrast, increase in p53-responsive reporter gene activity was not induced by IKK-α (FIG. 22). To examine the specificity of p73-dependent transcriptional activation mediated by IKK-α, whether IKK-β enhanced p73 transcriptional activity to p53/p73-responsive promoters was confirmed.
On the technique in general: In a reporter assay the amount or activity of a reporter protein is the signal.

Another test addresses T2, HA-p73α (Homo sapiens, UniProt O15350).
T2 construct: expressed in transfected cells; host or cells: COS7
T2 sequence (O15350 1-636): T1 sequence (O15350 1-636)
Briefly: Ubiquitination assay in COS7 cells. The class given is cell-based. Conditions: COS7, HA-p73α and HA-ubiquitin, MG-132 (FIG. 18, 19). As to the method:
COS7 cells were transiently transfected with a constant amount of expression plasmids encoding HA-p73α and HA-Ub in the presence or absence of varying amounts of IKK-α expression plasmids. After […] from the transfection, the cells were exposed for 6 hours to a proteasome inhibitor MG-132 (final concentration: 20 μM), and lysates from the whole cells were first subjected to immunoprecipitation with an anti-p73 monoclonal antibody and then to immunoblot using an anti-HA monoclonal antibody (12CA5; Roche Molecular Biochemicals) to analyze ubiquitination levels.
As described by Lee, C.-W. et al., Oncogene 18: 4171-4181 (1999), the steady-state level of p73 was regulated at least partially by the proteolytic process through the ubiquitin-proteasome pathway. Whether IKK-α inhibited the ubiquitination of p73 was investigated. COS7 cells were transfected with expression plasmids for HA-p73α and HA-ubiquitin together with or without varying amounts of IKK-α or FLAG-IKK-β expression plasmids. After 48 hours of the transfection, lysates from the whole cells were analyzed by immunoprecipitation and immunoblot and examined for the presence of p73α containing HA-ubiquitin.

Another test has as its system p53. Briefly: p53 protein level (stabilization) by immunoblot in cotransfected COS7 cells. In kind it is cell-based. Conditions: COS7 cotransfection (FIG. 14, 15). As to the method:
as §1
As previously reported, some protein kinases (e.g., c-Abl and PKCδ) that interact with p73 can stabilize p73. To confirm whether IKK-α influenced the stabilization of p73, COS7 cells were transfected with a constant amount of HA-p73α expression plasmid together with or without varying amounts of IKK-α expression plasmids and examined for HA-p73α protein levels. […]

Consider “FLAG-IKK-β: IκB kinase catalytic subunit IKK-β (IKK-2), FLAG-tagged, expressed from plasmid as comparison”, for which the “amount of HA-p73α” value in the test with p73 [1] is “no detectable effect on the stabilization of both p73 and p53”. In the test on H1299 cells, the “number of cells undergoing p73α-dependent apoptosis” value is “no remarkable effect on p73α-dependent apoptosis”. Moreover, in the test on p73 [2], the “p73-dependent transcriptional activation of p21WAF1, Bax, MDM2 promoter reporters” value is recorded as “no remarkable change in p73-dependent transcriptional activation”. Also, the “amount of ubiquitinated p73α” value with HA-p73α is given as “inhibited the ubiquitination of p73α to a somewhat lesser degree”. For the same substance, the “stabilization of p53” value in the test on p53 is “no detectable effect on the stabilization of both p73 and p53”.
